Data: patent US6063783A, “Analgesic use of triazolo-pyridazine derivatives” (Merck Sharp & Dohme Ltd., priority 1997, dated 2000)

How the values were obtained:
[1] = tested on: carrageenan-induced hyperalgesia; assay: rat carrageenan-induced hyperalgesia assay; assay type: in vivo; conditions: male Sprague Dawley rats, oral, given 2 h after carrageenan, mechanical thresholds at 3 h, read-out: ID50, inhibition of carrageenan-induced hyperalgesia
Method: Carrageenan-induced hyperalgesia
Male Sprague Dawley rats (100-120 g) received an intraplantar injection of carrageenan (4.5 mg) and mechanical thresholds were determined 3 h later using a modified Ugo Basile Algesiometer. Control rats received saline (0.15 ml i.pl.). Hyperalgesia was defined as the difference in vocalisation threshold for saline- and carrageenan-injected rats. Paw pressure scores for drug-treated rats were expressed as a percentage of this response. Compound A (1, 3 or 10 mg/kg) or vehicle were administered 2 h after carrageenan.
(§1) Compound A was suspended in 0.5% methocel and administered orally. Doses refer to the free base.

chain pulling = chain pulling (sedation) in rats; assay type: in vivo, rat; conditions: food-deprived P.V.G. rats; oral doses of up to 100 mg/kg; chain pulls recorded for up to 60 min
Method: Response sensitivity training and testing was carried out in standard operant conditioning chambers. Each chamber was equipped with a chain suspended from the centre of the ceiling and connected to a micro switch. Food pellets were delivered into a food magazine positioned at floor level in the centre of the front wall. Food-deprived P.V.G. rats (280-380 g) were trained to pull a chain for access to food pellets according to a random interval (RI) 30 s schedule. Animals received Compound A at 1, 3, 10, 30 or 100 mg/kg or vehicle and the number of chain pulls recorded for up to 60 min. Response rates for drug-treated animals are then expressed as a percentage of response rates for vehicle-treated rats.
as §1

Cn1ncnc1COc1nn2c(-c3ccccc3)nnc2cc1N1CCCC1 [Compound A, 6-(2-methyl-2H-1,2,4-triazol-3-ylmethoxy)-3-phenyl-7-(pyrrolidin-1-yl)-1,2,4-triazolo[4,3-b]pyridazine] was tested, and the ED50 [1] was 5.3 mg/kg and the “effects on chain pulling (sedation)” value (chain pulling) was “no effects”.
